A short description of data set [1]: Sirolimus concentrations in whole blood samples after balloon inflation. To be noted: for Est. Total Sirolimus in Blood: based on 56 mL per kg. It counts as in vivo, rabbit. As to the method:
(§1) • 4 balloons—Balloons inflated in pre-dilated arteries (right iliac) for 60 seconds • 4 balloons—Balloons inflated in non-dilated arteries (left iliac) for 60 seconds B. Tracking Studies: 4 balloons (1 rabbit) • 4 balloons—Balloons inserted and not inflated in aorta for 2 min, then removed C. Sirolimus Quantification • Sirolimus content from: 8 balloons inflated in rabbit iliac arteries 4 balloons not inflated in rabbit aorta 8 rabbit iliac arteries (after balloon inflation) 8 whole blood samples (2 samples/rabbit) • Liver, kidney, spleen, heart, lung: stored (−80° C.) for later drug analysis Sirolimus Concentrations in Rabbit Iliac Arteries
• Baseline samples taken before balloon inflation • After 2nd balloon inflation, blood samples were taken 5-15 min later • 5-15 min samples are the cumulative Sirolimus concentration from the inflation of 2 drug coated balloons per animal Total Sirolimus in blood based on 56 mL per kg Sirolimus Concentrations on Drug Coated Balloons (Rabbits)

A short description of data set [2]: Sirolimus content of rabbit iliac arteries after inflation of sirolimus coated balloons. It counts as in vivo. As to the method: GHOST Rapid Exchange (Rx) Catheter was used in this example. Ghost 3.0×18 mm Rx catheter balloons were coated and used in animal study
A. Expansion in rabbit iliac arteries: 8 balloons (4 rabbits)
as §1
• Drug coated balloons in right iliac arteries inflated/deflated—10-20 min before sacrifice • Drug coated balloons in left iliac arteries inflated/deflated—5-15 min before sacrifice Transfer Efficiency of Sirolimus to Rabbit Iliac Arteries
• Balloons inflated for 1 min in respective iliac arteries • % Sirolimus transferred to artery based on balloon batch average from UV-Vis data • Estimated time artery exposed to blood flow is time after balloon inflation

The mark [3] stands for this setting: Combined Right + Left Iliac Arteries, n = 8.

Several values for one entry are separate records, joined by “and”; a condition that tells them apart may be missing. Equal entries are not always repeated. Where two headings read alike, the source gives them in different places.

For `CO[C@H]1C[C@@H]2CC[C@@H](C)[C@@](O)(O2)C(=O)C(=O)N2CCCC[C@H]2C(=O)O[C@H]([C@H](C)C[C@@H]2CC[C@@H](O)[C@H](OC)C2)CC(=O)[C@H](C)/C=C(\C)[C@@H](O)[C@@H](OC)C(=O)[C@H](C)C[C@H](C)/C=C/C=C/C=C/1C` [Sirolimus, rapamycin], the “Est. Total Sirolimus in Blood” value in data set [1] (average of 4 rabbits (5-15 min)) was 5.4 ± 2.3 µg and 5.4 µg; in data set [1] (rabbit #1, 15 min), 2.7 µg; in data set [1] (rabbit #2, 5 min), 8.2 µg; in data set [1] (rabbit #3, 5 min), 5.9 µg; in data set [1] (rabbit #4, 10 min), 4.8 µg. Also, in data set [1] (rabbit, whole blood, rabbit #1, 15 min after 2nd balloon inflation, cumulative of 2 coated balloons, read-out: Extraction Conc.), the concentration at 15 min was 11.4 ng/mL. Moreover, the concentration at 5 min in data set [1] (rabbit, whole blood, rabbit #2, 5 min after 2nd balloon inflation, cumulative of 2 coated balloons, read-out: Extraction Conc.) was 30.8 ng/mL; in data set [1] (rabbit, whole blood, rabbit #3, 5 min after 2nd balloon inflation, cumulative of 2 coated balloons, read-out: Extraction Conc.), 22.2 ng/mL. In data set [1] (rabbit, whole blood, rabbit #4, 10 min after 2nd balloon inflation, cumulative of 2 coated balloons, read-out: Extraction Conc.), the concentration at 10 min came to 19.3 ng/mL. Further, the “Extraction Conc.” value in data set [1] (whole blood, average of 4 rabbits (5-15 min)) came out at 20.9 ng/mL. Further, the “Average Sirolimus” value in data set [2] (setting [3]) was 197.2 ± 85.3 ng/mg and 197.2 ng/mg; in data set [2] (Left Iliac (uninjured), n = 4, coated balloon inflated 60 s, 5-15 min before sacrifice), 216.1 ng/mg; in data set [2] (Right Iliac (denuded), n = 4, coated balloon inflated 60 s, 10-20 min before sacrifice) it was 178.3 ng/mg. For the same compound, the “Total Sirolimus per Artery Average” value is 4.7 µg in data set [2] (setting [3]); 3.9 µg in data set [2] (Left Iliac (uninjured), n = 4); 5.4 µg in data set [2] (Right Iliac (denuded), n = 4). The “Total Sirolimus per Artery” value in data set [2] (average of the 8 balloons/arteries) was 4.7 µg. The “% Sirolimus Transferred to Artery” value in data set [2] (average of the 8 balloons/arteries, based on balloon batch average from UV-Vis data) is 7.8±2.8% and 7.8%.

The record behind these values is patent US10350391B2, “Drug delivery medical device” (Micell Technologies, Inc., priority 2009, dated 2019).
